Laboratory results taken from article PMC7806522, “Olfactory marker protein interacts with adenosine nucleotide derivatives” (Biochemistry and Biophysics Reports, 2021).

How the values were obtained:
Assay type in all cases: biochemical
[1] = biological target: T1, Olfactory marker protein (OMP) (Mus musculus, UniProt Q64288); test: direct BRET binding, Rluc-OMP to fluorescent TNP-ATP, Rluc-alone background subtracted
T1 construct: Rluc-OMP fusion (Rluc upstream of mouse OMP, NM_011010), from HEK293T lysate
T1 sequence (Q64288 2-163): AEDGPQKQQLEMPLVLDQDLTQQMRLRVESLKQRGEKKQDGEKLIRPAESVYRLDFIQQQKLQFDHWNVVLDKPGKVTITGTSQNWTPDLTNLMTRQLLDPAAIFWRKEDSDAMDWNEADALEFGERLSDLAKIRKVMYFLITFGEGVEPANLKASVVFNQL

[2] = biological target: T1, Olfactory marker protein (OMP); test: BRET competition against […] 8NBD-cAMP (U-shaped)
[3] = biological target: T1, Olfactory marker protein (OMP); test: BRET competition against […] 8NBD-cAMP (U-shaped, peak at […])

Nc1ncnc2c1ncn2[C@@H]1O[C@H](COP(=O)(O)OP(=O)(O)OP(=O)(O)O)[C@H]2OC3(O[C@H]21)C([N+](=O)[O-])=CC(=[N+]([O-])[O-])C=C3[N+](=O)[O-] (stereo partly drawn) [TNP-ATP]
EC50 [1]: 13 ± 1.5 µM

Nc1ncnc2c1ncn2[C@@H]1O[C@H](COP(=O)(O)OP(=O)(O)OP(=O)(O)O)[C@@H](O)[C@H]1O [ATP]
EC50 [2]: 1 ± 0.15 µM

Nc1ncnc2c1ncn2[C@@H]1O[C@H](COP(=O)(O)OP(=O)(O)O)[C@@H](O)[C@H]1O [ADP]
concentration at peak BRET signal [3]: 1 to 3 µM
